Here are results for one compound from patent publication US20250275993A1, “GLYCOSYLATION INHIBITORS AS THERAPEUTICS FOR STROKE” (The Regents of the University of California, priority 2022, published 2025).

For data set [1], the system named is A673. In words: A673 proliferation assay. The conditions noted are these: ManN. It is filed as cell-based. On the procedure:
(§1) Proliferation assays with fibroblasts were done in low-glucose DMEM containing 1% FBS, with or without 10 ng/ml bFGF, or 100 ng/ml human EGF and the assay was ended at day 3. ARPE-19 cells were gently lifted with 0.025% trypsin and plated in RtEGM media (Clonetics) containing 2% FBS, L-glutamine, human bFGF and GA-1000. Once cells were attached to plates, serum-free RtEGM media was used to maintain the cultures. For proliferation assays, 1500 human RPE cells were plated into 96-well plates in low-glucose DMEM containing 1% FBS. A673, U87MG, Calu6 and AML12 cells were grown until confluent and were then harvested and re-suspended in appropriate assay media. For proliferation assays, cells were plated at the density of 1000-2000 cells/well in low-glucose DMEM containing 5% FBS or otherwise stated. Bovine pituitary cells (pituitary folliculostellate cells) were isolated as previously described. For proliferation assays with human epidermal keratinocytes, human DMVECs and human dermal fibroblast cells, 1000 cells/well were plated in low-glucose DMEM containing 1% FBS with or without various growth factors. The assay was ended at day 3 for bovine pituitary cells and at day 4 for all the other cell types. […] Four days later, tumor cell growth was measured by the MTS assay (Promega, Madison, WI), a colorimetric assay that measures metabolic activity of viable cells. […]

The test system of data set [2] is human keratinocytes. In words: Human keratinocyte proliferation assay. It is filed as cell-based. On the procedure: as §1
The test system of data set [3] is VEGF, VEGFR2 and GLUT1 & 4. The data set is described as follows: Gene expression analysis by real-time Q PCR in BCECs. The conditions noted are these: various concentrations of ManN; 4 hours (gene) or 24 hours (protein). It is filed as cell-based, bovine. On the procedure: RNA was prepared using the RNeasy Mini Kit (Qiagen). Fifty ng of total RNA per reaction was used for the real-time PCR (Taqman) analysis. Reactions were set up in MicroAmp Fast Optical 96-well reaction plate, seal with MicroAmp optical Adhesion film and run on ViiA7 Real time PCR system (Applied Biosystems) and the absolute quantification with standard curve was used with Sequence Detection System (SDS) software. The expression level of each gene was further quantified relative to the housekeeping gene RPL19 in the same sample. Taqman primers and probe mixes were obtained from Thermo Fisher Scientific. Bovine VEGF-A (Bt03213282), bovine RPL19 (Bt03229687) and bovine specific VEGFR2 (Bt03258877), GLUT1 (Bt03215313) and GLUT4 (Bt03215316).

Data set [4] concerns U87MG. The data set is described as follows: U87MG proliferation assay. The format is cell-based. The conditions noted are these: ManN. On the procedure: as §1
Data set [5] deals with HUVEC. In words: HUVEC proliferation assay. The format is cell-based, human. On the procedure:
Proliferation assays with BCECs and BRECs were performed. Log-phase growing BCECs or BRECs (passage <10) were trypsinized, re-suspended and seeded in 96-well plates (no coating) in low-glucose DMEM supplemented with 10% bovine calf serum, 2 mM glutamine, and antibiotics (growth medium), at a density of 1200-1500 cells per well in 200 μl volume. All reagents were added at the indicated final concentrations. After 3-6 days, cells were incubated with AlamarBlue for 4 hrs. Fluorescence was measured at 530 nm excitation wavelength and 590 nm emission wavelength. The experiments were repeated at least three times. To create a hypoxic condition, cells were placed in a hypoxia incubator with a mixture of gas consisting of 1% O2, 5% CO2 and 94% N2. On each 96-well plate, untreated and VEGF-treated (10/ng/ml) wells were included to monitor plate-to-plate variations. 20% methanol or 0.05% DMSO served as negative controls. […] Human RMVECs and human adult DMVECs were split into Gelatin-coated 96 wells (2000 cells per well) in low glucose DMEM containing 10% FBS. 1200 cells/well was set up for proliferation assay in low glucose media containing 0.5% FBS. Data was collected at day 4 or 5. HUVEC (p7-10) were grown on gelatin-coated plate until it reached 70-80% confluency.
On the day of the assay, cells were dissociated with 0.05% trypsin, which was neutralized with 0.5% FBS-containing EBM. Cells were briefly spun and then re-suspended in 0.5% FBS-media. Cells were counted and plated in 96-well, 1000 cells/well. Triplicate wells were used for each treatment. Data were collected at day 3, and then cells were fixed in 4% paraformaldehyde for 15 min before adding crystal violet. Cell-covered areas were quantified after taking pictures by Image J software.

Data set [6] concerns VEGFR2 on cell surface. The data set is described as follows: Biotinylation of surface proteins in BCECs. The format is cell-based, bovine. The conditions noted are these: ManN-treated BCECs. On the procedure:
BCECs were plated in 10 cm cell culture dishes 3 days prior to the cell surface protein isolation. Cells were washed three times with Dulbecco's PBS with CaCl2 and MgCl2, followed by a 30 min incubation with EZ-Link Sulfo-NHS-SS-Biotin (Pierce, Rockford, IL, USA; 0.5 mg/ml in Dulbecco) on ice. Cells were washed twice with Dulbecco and the non-reacted biotin was blocked with 20 mM glycine for 15 mins. To prevent the reduction of the disulfide bridge in the biotin molecule during the cell lysis process, a 100 μM oxidized glutathione (Sigma-Aldrich, St. Louis, MO) was added in the last wash solution. For cell lysis 500 μL of lysis buffer (2% NP-40, 1% Triton X-100, 10% glycerol, 100 μM oxidized glutathione, EDTA free protease inhibitor tablet (Roche, Mannheim, Germany) in PBS was added to the cells. Lysed cell extracts were scraped off the plates and transferred to an Eppendorf tube followed by incubation on ice on a shaker for 30 mins. The cell extracts were incubated with 30 U of DNase (22° C. 50 mins, Roche, Mannheim, Germany) and centrifuged for 20 mins (20,800×g, at 4° C.) to pellet the insoluble material. The protein concentration of the supernatants was determined. Equal amounts of protein (−2 mg) from each extract were used for cell surface protein isolation. […]

As for `N[C@H](C=O)[C@@H](O)[C@H](O)[C@H](O)CO` [ManN, 2-Amino-2-deoxy-D-mannose], the “growth of A673” value in data set [1] is on record as “did not promote growth”. The “sensitivity of human keratinocytes to ManN toxicity” value in data set [2] (5 mM level of ManN) is listed as “least sensitive ones”. In data set [2] (alone or in combination with growth factors), the “proliferation of human keratinocytes” value is on record as “no increases in proliferation”. Also, the “transcription of VEGF, VEGFR2, GLUT1 & 4 and total VEGFR2 protein expression” value in data set [3] is “neither transcription of VEGF, VEGFR2 and GLUT] & 4 nor total VEGFR2 protein expression was significantly changed”. In data set [4], the “growth of U87MG” value is on record as “did not promote growth”. Further, in data set [5] (5 mM ManN), the “toxicity on HUVEC” value is “minimal toxicity”. In addition, the “HUVEC growth, ManN by itself” value in data set [5] (ManN alone) is given as “stimulated”. The “additivity with VEGF on HUVEC proliferation” value in data set [5] (with VEGF) is reported as “dose-dependent additivity with VEGF”. Moreover, the “amount of VEGFR2 on cell surface” value in data set [6] is “no changes”.
